Reference: patent US10508120B2, “TYK2 inhibitors and uses thereof” (Nimbus Lakshmi, Inc., priority 2017, dated 2019)

Key:
[1] = molecular target: human TYK2 (JH2domain-pseudokinase) (Homo sapiens (Human), UniProt P29597); assay: TYK2 JH2 Domain Binding Assay (KINOMEscan)
Summary of the method: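 Competition binding of a DNA-tagged fusion of human TYK2 JH2 pseudokinase (G556–D888) with NFkB DNA-binding domain, from HEK293 extracts (<0.1 nM final), against immobilised ligand beads; 1 h shaking at room temperature, 0.9% DMSO. Bound kinase quantified by qPCR.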

Tyk2 kinase domain (DH1) = Tyk2 kinase domain (DH1) (Homo sapiens (Human), UniProt P29597); assay: Tyk2 Radioactive Kinase Assay; assay type: biochemical; conditions: compound at 10 μM; ATP 10 μM; read-out: Tyk2 JH1% Inhibition @ 10 μM
Summary of the method: (§1)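 Compounds were tested at a single concentration of 10 μM in a radiometric kinase format against each isolated kinase domain. Activity is reported as percent inhibition at that concentration.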

JAK2 kinase domain (JH1) = JAK2 kinase domain (JH1) (Homo sapiens (Human), UniProt O60674); assay: JAK2 Radioactive Kinase Assay; assay type: biochemical; conditions: compound at 10 μM; ATP 10 μM; read-out: JAK2 JH1% Inhibition @ 10 μM
Summary of the method: as §1

Sequence of human TYK2 (JH2domain-pseudokinase) (P29597 556-888): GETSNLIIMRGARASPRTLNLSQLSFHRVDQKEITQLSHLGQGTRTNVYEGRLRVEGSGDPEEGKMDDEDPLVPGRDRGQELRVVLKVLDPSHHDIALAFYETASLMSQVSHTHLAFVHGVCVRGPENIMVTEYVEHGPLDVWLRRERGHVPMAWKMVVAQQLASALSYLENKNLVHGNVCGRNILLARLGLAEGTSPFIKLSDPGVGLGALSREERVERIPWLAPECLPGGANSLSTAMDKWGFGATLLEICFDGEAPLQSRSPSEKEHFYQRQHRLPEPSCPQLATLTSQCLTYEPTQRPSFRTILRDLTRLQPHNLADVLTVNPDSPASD
Sequence of JAK2 kinase domain (JH1) (O60674 849-1124): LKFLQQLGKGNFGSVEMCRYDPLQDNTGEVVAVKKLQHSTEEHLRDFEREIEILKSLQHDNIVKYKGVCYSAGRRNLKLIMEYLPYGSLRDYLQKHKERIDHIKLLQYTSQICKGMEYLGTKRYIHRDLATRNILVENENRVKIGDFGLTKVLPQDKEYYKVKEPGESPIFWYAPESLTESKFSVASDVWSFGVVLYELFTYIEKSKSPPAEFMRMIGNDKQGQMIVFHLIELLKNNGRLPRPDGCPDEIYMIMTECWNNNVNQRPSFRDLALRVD
Sequence of Tyk2 kinase domain (DH1) (P29597 897-1176): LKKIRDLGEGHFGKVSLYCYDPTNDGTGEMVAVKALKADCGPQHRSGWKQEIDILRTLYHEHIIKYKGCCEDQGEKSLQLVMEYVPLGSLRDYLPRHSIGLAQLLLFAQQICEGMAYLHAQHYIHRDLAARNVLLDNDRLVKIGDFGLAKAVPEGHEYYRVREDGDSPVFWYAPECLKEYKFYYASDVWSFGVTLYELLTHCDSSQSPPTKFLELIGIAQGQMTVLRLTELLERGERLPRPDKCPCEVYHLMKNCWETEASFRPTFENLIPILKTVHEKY

Row | SMILES | Kd [1] | inhibition at 10 µM (Tyk2 kinase domain (DH1)) | inhibition at 10 µM (JAK2 kinase domain (JH1))
1 | CNc1cc(Nc2cccn(-c3ccn(C4CC4)n3)c2=O)nc2c(C(=O)NC3COC3)cnn12 [I-89, 5-((1-(1-cyclopropyl-1H-pyrazol-3-yl)-2-oxo-1,2-dihydropyridin-3-yl)amino)-7-(methylamino)-N-(oxetan-3-yl)pyrazolo[1,5-a]pyrimidine-3-carboxamide] | > 10 nM | < 50% | < 50%
2 | CNc1cc(Nc2cc(Cl)cnc2OC2CCC2)nc2c(C(=O)NC3COC3)cnn12 [I-93, 5-((5-chloro-2-cyclobutoxypyridin-3-yl)amino)-7-(methylamino)-N-(oxetan-3-yl)pyrazolo[1,5-a]pyrimidine-3-carboxamide] | > 10 nM | < 50% | < 50%
3 | CNc1cc(Nc2cccn(-c3ccn(C4CC4)n3)c2=O)nc2c(C(=O)NC3CC3)cnn12 [I-98] | < 0.2 nM | < 50% | < 50%
4 | CNc1cc(Nc2cccn(-c3ccc(F)cc3)c2=O)nc2c(C(=O)NC3COC3)cnn12 [I-109] | > 10 nM | < 50% | < 50%
5 | CNc1cc(Nc2cccn(-c3ccc(F)cn3)c2=O)nc2c(C(=O)NC3CC3)cnn12 [I-116] | < 0.2 nM | < 50% | < 50%
6 | CCOc1ccc(-n2cccc(Nc3cc(NC)n4ncc(C(=O)NC5CC5)c4n3)c2=O)nn1 [I-118] | 0.2 to 1 nM | < 50% | < 50%
7 | CNc1cc(Nc2cccn(-c3ccnc(C)n3)c2=O)nc2c(C(=O)NC3CC3)cnn12 [I-125] | < 0.2 nM | < 50% | < 50%
8 | CNc1cc(Nc2cccn(-c3ccc(C(=O)N4CCCC4)cn3)c2=O)nc2c(C(=O)N[C@H]3C[C@H]3F)cnn12 [I-128] | < 0.2 nM | < 50% | < 50%
9 | CNc1cc(Nc2cccn(-c3ccc(C(=O)N4CCCC4)cn3)c2=O)nc2c(C(=O)NC3CC3)cnn12 [I-129] | < 0.2 nM | < 50% | < 50%
10 | CNc1cc(Nc2cccn(-c3cccc(C)n3)c2=O)nc2c(C(=O)NC3CCC3)cnn12 [I-130, N-cyclobutyl-5-((6′-methyl-2-oxo-2H-[1,2′-bipyridin]-3-yl)amino)-7-(methylamino)pyrazolo[1,5-a]pyrimidine-3-carboxamide] | < 0.2 nM | < 50% | < 50%
11 | CNc1cc(Nc2ccnn(-c3ccc(F)cc3)c2=O)nc2c(C(=O)N[C@H]3C[C@H]3F)cnn12 [I-134] | 0.2 to 1 nM | < 50% | < 50%
12 | CNc1cc(Nc2cccn(-c3ccn(C)n3)c2=O)nc2c(C(=O)N[C@H]3C[C@H]3F)cnn12 [I-140] | < 0.2 nM | < 50% | < 50%
13 | CNc1cc(Nc2cccn(-c3ccc(C(=O)N4CCC4)cn3)c2=O)nc2c(C(=O)N[C@H]3C[C@H]3F)cnn12 [I-142] | < 0.2 nM | < 50% | < 50%
14 | CNc1cc(Nc2cccn(-c3cccc(C(C)(C)O)n3)c2=O)nc2c(C(=O)NC3CC3)cnn12 [I-155] | < 0.2 nM | < 50% | < 50%
15 | CNc1cc(Nc2cccn(-c3nccs3)c2=O)nc2c(C(=O)NC3CC3)cnn12 [I-157] | < 0.2 nM | < 50% | < 50%
16 | CNc1cc(Nc2cc(C)cn(-c3cnn(C4CC4)c3C)c2=O)nc2c(C(=O)NC3CCC3)cnn12 [I-159] | 0.2 to 1 nM | < 50% | < 50%
17 | CNc1cc(Nc2cccn([C@H]3CC[C@H](O)CC3)c2=O)nc2c(C(=O)N[C@H]3C[C@H]3F)cnn12 [I-166] | < 0.2 nM | < 50% | < 50%
18 | CNc1cc(Nc2cccn([C@H]3CC[C@H](O)CC3)c2=O)nc2c(C(=O)NC3CC3)cnn12 [I-167] | < 0.2 nM | < 50% | < 50%

More lines, now with the values ahead:

Row | Kd [1] | inhibition at 10 µM (Tyk2 kinase domain (DH1)) | inhibition at 10 µM (JAK2 kinase domain (JH1)) | SMILES
19 | 1 to 10 nM | < 50% | < 50% | NC(=O)c1cnn2c(N)cc(Nc3cc(Cl)cnc3OC3CCOC3)nc12 (stereo not drawn) [I-82, 7-amino-5-((5-chloro-2-((tetrahydrofuran-3-yl)oxy)pyridin-3-yl)amino) pyrazolo[1,5-a]pyrimidine-3-carboxamide]
20 | > 10 nM | < 50% | < 50% | CNc1cc(Nc2cccnc2OC)nc2c(C(=O)NC3COC3)cnn12 [I-83]
21 | 0.2 to 1 nM | < 50% | < 50% | CNc1cc(Nc2cccnc2OC(F)(F)F)nc2c(C(=O)NC3CC3)cnn12 [I-90]
22 | < 0.2 nM | < 50% | < 50% | CNc1cc(Nc2cccnc2OC(F)(F)F)nc2c(C(N)=O)cnn12 [I-91]
23 | > 10 nM | < 50% | < 50% | CNc1cc(Nc2cccnc2OC(F)(F)F)nc2c(C(=O)NC3COC3)cnn12 [I-92]
24 | 0.2 to 1 nM | < 50% | < 50% | CNc1cc(Nc2cc(Cl)cnc2O[C@H]2C[C@@H](OC)C2)nc2c(C(N)=O)cnn12 [I-96]
25 | 1 to 10 nM | < 50% | < 50% | CO[C@H]1C[C@@H](Oc2ncc(Cl)cc2Nc2cc(N)n3ncc(C(N)=O)c3n2)C1 [I-97]
26 | 1 to 10 nM | < 50% | < 50% | Cc1cc(Nc2cc(N)n3ncc(C(N)=O)c3n2)c(=O)n(-c2ccnn2C)c1 [I-99]
27 | 1 to 10 nM | < 50% | < 50% | NC(=O)c1cnn2c(N)cc(Nc3cccn(C4CCN(CC(F)F)CC4)c3=O)nc12 [I-100]
28 | > 10 nM | < 50% | < 50% | Nc1cc(Nc2cccc(N3CCCC3=O)n2)nc2c(C(=O)NC3COC3)cnn12 [I-101, 7-amino-N-(oxetan-3-yl)-5-((6-(2-oxopyrrolidin-1-yl)pyridin-2-yl)amino)pyrazolo[1,5-a]pyrimidine-3-carboxamide]
29 | 0.2 to 1 nM | 70 to 90% | > 90% | NC(=O)c1cnn2c(N)cc(Nc3cccnc3OC(F)(F)F)nc12 [I-102, 7-amino-5-((2-(trifluoromethoxy)pyridin-3-yl)amino)pyrazolo[1,5-a]-pyrimidine-3-carboxamide]
30 | > 10 nM | < 50% | < 50% | Nc1cc(Nc2cccnc2OC(F)(F)F)nc2c(C(=O)NC3COC3)cnn12 [I-103, 7-amino-N-(oxetan-3-yl)-5-((2-(trifluoromethoxy)pyridin-3-yl)amino)pyrazolo[1,5-a]pyrimidine-3-carboxamide]
31 | 1 to 10 nM | < 50% | < 50% | CNc1cc(Nc2cccn(-c3cc(C)on3)c2=O)nc2c(C(=O)NC3COC3)cnn12 [I-104]
32 | 0.2 to 1 nM | < 50% | < 50% | CNc1cc(Nc2cccn(C3CCOC3)c2=O)nc2c(C(N)=O)cnn12 (stereo not drawn) [I-108]
33 | 0.2 to 1 nM | < 50% | < 50% | CNc1cc(Nc2cc(Cl)cnc2O[C@H]2C[C@H](OC)C2)nc2c(C(N)=O)cnn12 [I-111]
34 | 1 to 10 nM | < 50% | < 50% | CNc1cc(Nc2cc(N3CCCC3)nc(C(F)(F)F)c2)nc2c(C(N)=O)cnn12 [I-112]
35 | 1 to 10 nM | > 90% | > 90% | Nc1cc(Nc2cccnc2OC(F)(F)F)nc2c(C(=O)NC3CC3)cnn12 [I-113, 7-amino-N-cyclopropyl-5-((2-(trifluoromethoxy)pyridin-3-yl)amino)pyrazolo[1,5-a]pyrimidine-3-carboxamide]
36 | 1 to 10 nM | < 50% | < 50% | CNc1cc(Nc2cc(C)cn(-c3cnn(C4CC4)c3C)c2=O)nc2c(C(N)=O)cnn12 [I-114]
37 | 1 to 10 nM | < 50% | < 50% | CO[C@H]1C[C@H](Oc2ncc(Cl)cc2Nc2cc(N)n3ncc(C(N)=O)c3n2)C1 [I-119]
38 | 1 to 10 nM | < 50% | < 50% | NC(=O)c1cnn2c(N)cc(Nc3cc(N4CCCC4)nc(C(F)(F)F)c3)nc12 [I-120]
39 | 0.2 to 1 nM | < 50% | < 50% | CNc1cc(Nc2cccnc2OC(C)C)nc2c(C(=O)NC3CC3)cnn12 [I-146]
40 | 0.2 to 1 nM | < 50% | < 50% | CNc1cc(Nc2cc(Cl)cnc2OC(C)C)nc2c(C(=O)N[C@H]3C[C@H]3F)cnn12 [I-148]
41 | 1 to 10 nM | < 50% | < 50% | CNc1cc(Nc2cc(Cl)cnc2OC(C)C)nc2c(C(=O)NC3CCC3)cnn12 [I-149]
42 | 0.2 to 1 nM | < 50% | < 50% | CNc1cc(Nc2cc(Cl)cnc2OC(C)C)nc2c(C(=O)NC3CC3)cnn12 [I-150]
43 | 0.2 to 1 nM | < 50% | < 50% | CNc1cc(Nc2cccnc2OC(F)F)nc2c(C(N)=O)cnn12 [I-152]
44 | 0.2 to 1 nM | < 50% | < 50% | CNc1cc(Nc2cccnc2OC2CCC2)nc2c(C(=O)NC3CCC3)cnn12 [I-168]
45 | 0.2 to 1 nM | < 50% | < 50% | CNc1cc(Nc2cccnc2OC2CCC2)nc2c(C(=O)NC3CC3)cnn12 [I-169]
46 | 0.2 to 1 nM | < 50% | < 50% | CNc1cc(Nc2cccnc2O[C@@H]2CCOC2)nc2c(C(=O)NC3CCC3)cnn12 [I-171]
